Measurements taken from ChEMBL document CHEMBL4765244, “Synthesis, bioconversion, pharmacokinetic and pharmacodynamic evaluation of N-isopropyl-oxy-carbonyloxymethyl prodrugs of CZh-226, a potent and selective PAK4 inhibitor” (Eur J Med Chem, 2020).

Experiments:
[1] = Tmax in Wistar rat assessed as (R)-(6-chloro-4-(5-cyclopropyl-1H-pyrazol-3-ylamino)quinazolin-2-yl)(3-methylpiperazin-1-yl)methanone hydrochloride at 13.5 mg/kg, po measured upto 24 hrs by LC/MS/MS analysis; format: ADME, organism-based; settings: in vivo
[2] = Stability of the compound in human plasma assessed as compound remaining measured within 120 mins at 37 degC by HPLC analysis; format: ADME, cell-free; settings: read-out: Stabilty
[3] = Initial plasma concentration in Wistar rat assessed as (R)-(6-chloro-4-(5-cyclopropyl-1H-pyrazol-3-ylamino)quinazolin-2-yl)(3-methylpiperazin-1-yl)methanone hydrochloride at 2.5 mg/kg, iv measured upto 24 hrs by LC/MS/MS analysis; format: ADME, organism-based; settings: in vivo
[4] = AUC in Wistar rat assessed as (R)-(6-chloro-4-(5-cyclopropyl-1H-pyrazol-3-ylamino)quinazolin-2-yl)(3-methylpiperazin-1-yl)methanone hydrochloride at 13.5 mg/kg, po measured upto 24 hrs by LC/MS/MS analysis; format: ADME, organism-based; design: route oral, dose 13.5 mg/kg, time <=24; settings: in vivo
[5] = AUC in Wistar rat assessed as (R)-(6-chloro-4-(5-cyclopropyl-1H-pyrazol-3-ylamino)quinazolin-2-yl)(3-methylpiperazin-1-yl)methanone hydrochloride at 2.5 mg/kg, iv measured upto 24 hrs by LC/MS/MS analysis; format: ADME, organism-based; design: route intravenous, dose 2.5 mg/kg, time <=24; settings: in vivo
[6] = Stability of the compound in rat liver S9 fraction assessed as compound remaining measured after 60 mins at 37 degC by LC-MS/MS analysis; format: ADME, subcellular; settings: read-out: Stabilty
[7] = Volume of distribution in Wistar rat assessed as (R)-(6-chloro-4-(5-cyclopropyl-1H-pyrazol-3-ylamino)quinazolin-2-yl)(3-methylpiperazin-1-yl)methanone hydrochloride at 2.5 mg/kg, iv measured upto 24 hrs by LC/MS/MS analysis; format: ADME, organism-based; settings: in vivo
[8] = Chemical stability of the compound in pH 7.4 PBS buffer assessed as compound remaining measured after 2 hrs by HPLC analysis; format: physicochemical; settings: read-out: Stabilty
B16-F10 [9] = assay: Antitumor activity against mouse B16F10 cells xenografted in BABL/c nude mouse assessed as reduction in tumor volume at 25 mg/kg, po qd measured after 21 days; format: functional; settings: 504 h, time 21 day
[10] = Half life in Wistar rat assessed as (R)-(6-chloro-4-(5-cyclopropyl-1H-pyrazol-3-ylamino)quinazolin-2-yl)(3-methylpiperazin-1-yl)methanone hydrochloride at 2.5 mg/kg, iv measured upto 24 hrs by LC/MS/MS analysis; format: ADME, organism-based; settings: in vivo
[11] = Chemical stability of the compound in pH 1.2 simulated gastric fluid buffer assessed as compound remaining measured after 2 hrs by HPLC analysis; format: physicochemical
[12] = Oral bioavailability in Wistar rat assessed as (R)-(6-chloro-4-(5-cyclopropyl-1H-pyrazol-3-ylamino)quinazolin-2-yl)(3-methylpiperazin-1-yl)methanone hydrochloride at 13.5 mg/kg measured upto 24 hrs by LC/MS/MS analysis; format: ADME, organism-based; settings: in vivo
[13] = Cmax in Wistar rat assessed as (R)-(6-chloro-4-(5-cyclopropyl-1H-pyrazol-3-ylamino)quinazolin-2-yl)(3-methylpiperazin-1-yl)methanone hydrochloride at 13.5 mg/kg, po measured upto 24 hrs by LC/MS/MS analysis; format: ADME, organism-based; design: route oral, dose 13.5 mg/kg, time <=24; settings: in vivo
[14] = Toxicity in […] nude mouse harboring mouse B16F10 cells assessed as body weight loss at 25 to 50 mg/kg, po qd measured after 21 days relative to control; format: organism-based; settings: in vivo, 504 h, dose 25-50 mg/kg, time 21 day
HCT-116 [15] = assay: Antitumor activity against human HCT-116 cells xenografted in BABL/c nude mouse assessed as reduction in tumor weight at 25 mg/kg, po qd measured after 21 days; format: functional; settings: HCT-116, po, 504 h, time 21 day
[16] = Toxicity in […] nude mouse harboring human HCT-116 cells assessed as body weight loss at 25 to 50 mg/kg, po qd measured after 21 days relative to control; format: organism-based; settings: in vivo, 504 h, dose 25-50 mg/kg, time 21 day
[17] = Half life in Wistar rat assessed as (R)-(6-chloro-4-(5-cyclopropyl-1H-pyrazol-3-ylamino)quinazolin-2-yl)(3-methylpiperazin-1-yl)methanone hydrochloride at 13.5 mg/kg, po measured upto 24 hrs by LC/MS/MS analysis; format: ADME, organism-based; settings: in vivo
[18] = Chemical stability of the compound in pH 6.8 simulated intestinal fluid assessed as compound remaining measured after 2 hrs by HPLC analysis; format: physicochemical
HCT-116 [19] = assay: Antitumor activity against human HCT-116 cells xenografted in BABL/c nude mouse assessed as reduction in tumor weight at 50 mg/kg, po qd measured after 21 days; format: functional; settings: HCT-116, po, 504 h, time 21 day
[20] = Prodrug conversion in human plasma assessed as release of active metabolite (R)-(6-chloro-4-(5-cyclopropyl-1H-pyrazol-3-ylamino)quinazolin-2-yl)(3-methylpiperazin-1-yl)methanone hydrochloride measured within 120 mins at 37 degC by HPLC analysis; format: ADME, cell-free; settings: 2 h
[21] = AUC (0 to infinity) in Wistar rat assessed as (R)-(6-chloro-4-(5-cyclopropyl-1H-pyrazol-3-ylamino)quinazolin-2-yl)(3-methylpiperazin-1-yl)methanone hydrochloride at 13.5 mg/kg, po measured upto 24 hrs by LC/MS/MS analysis; format: ADME, organism-based; design: route oral, dose 13.5 mg/kg, time <=24; settings: in vivo
[22] = AUC (0 to infinity) in Wistar rat assessed as (R)-(6-chloro-4-(5-cyclopropyl-1H-pyrazol-3-ylamino)quinazolin-2-yl)(3-methylpiperazin-1-yl)methanone hydrochloride at 2.5 mg/kg, iv measured upto 24 hrs by LC/MS/MS analysis; format: ADME, organism-based; design: route intravenous, dose 2.5 mg/kg, time <=24; settings: in vivo
B16-F10 [23] = assay: Antitumor activity against mouse B16F10 cells xenografted in BABL/c nude mouse assessed as reduction in tumor volume at 50 mg/kg, po qd measured after 21 days; format: functional; settings: 504 h, time 21 day

Tmax [1]: 4.98 min | remaining at 2 h [2]: 6.1% | C0 [3]: 4130 ng/mL | AUC [4]: 129.7 ng·h/mL | AUC [5]: 1124.8 ng·h/mL | remaining at 1 h [6]: 14% | Vd [7]: 21.6 L/kg | remaining at 2 h [8]: 93.5% | t1/2 [10]: 7.1 h | F [12]: 7.55% | Cmax [13]: 31.5 ng/mL | t1/2 [17]: 20.1 h | Drug metabolism [20]: 89.9% | AUC [21]: 470.8 ng·h/mL | AUC [22]: 1173.5 ng·h/mL
Structure (SMILES): CC(C)C(=O)OCOC(=O)N1CCN(C(=O)c2nc(Nc3cc(C4CC4)[nH]n3)c3cc(Cl)ccc3n2)C[C@H]1C
inhibition in vivo at 25 mg/kg (B16-F10 [9]): 51% | Stability [11]: 90% | Activity [14]: Non-Toxic | inhibition in vivo at 25 mg/kg (HCT-116 [15]): 54% | Activity [16]: Non-Toxic | Stability [18]: 46% | inhibition in vivo at 50 mg/kg (HCT-116 [19]): 65% | inhibition in vivo at 50 mg/kg (B16-F10 [23]): 63%
